Data taken from patent publication US4478746A, “Glycosylated insulin derivatives” (priority 1984, dated 1984).

Assays:
blood sugar level = experiment: Blood sugar depression (BSD) test; format: in vivo; conditions: rats fasted twenty hours, 1 mg/kg intraperitoneal, 20 minutes after injection; control (baseline) 64.62 ± 0.61
Protocol: The bioactivity of the glycosated insulins described herein was determined by a blood sugar depression test and compared to commercial insulin preparations and controls. In this test, replicates of standard laboratory rats were fasted for twenty hours. After measuring baseline blood sugar levels, a 1 mg/kg dose of either free or glycosylated insulin was injected via an intraperitoneal route. The blood sugar level in each rat was measured colormetrically 20 minutes after the injection.

[1] = Bulk aggregation study (stirred aqueous solutions, aggregation visually observed); format: physicochemical; conditions: aqueous solution 0.1 mg/ml insulin, stirred at 1555 rpm until aggregation visually observed or up to two weeks
Protocol: (§1) Bulk aggregation studies with free insulin compared with glycosylated insulins were carried out by two methods. In a bulk aggregation study, various aqueous insulin and glycosylated insulin solutions containing 0.1 mg/ml of insulin were stirred at 1555 rpm until aggregation was visually observed or up to two weeks. In a second test, solutions containing the same insulin concentration were deposited on polyurethane (Biomer) and microscopically observed for aggregation.

[2] = Aggregation test on polyurethane (Biomer), microscopically observed; format: physicochemical; conditions: 0.1 mg/ml insulin solution deposited on polyurethane (Biomer)
Protocol: as §1

Substance	Blood Sugar Concentration after 20 min. IP. injection (± S.E.M.) (blood sugar level) [mg/dL]	Time required for aggregation, Bulk [1]	Time required for aggregation, Polyurethane [2]
SIGMA INS (21F-0375): commercial insulin preparation (Sigma) used as comparison	32.66 ± 1.10		
p-(α-D-mannopyranosyloxy)-phenyl-N-glutaramyl insulin	40.60 ± 0.80		
p-α-D-glucopyranosyloxy)-phenyl-N-glutaramyl insulin	40.40 ± 2.53		
p-(α-D-mannopyranosyloxy)-phenyl-N-succinamyl insulin	44.80 ± 2.37	2 weeks	2 weeks
Glucosamidosuccinyl insulin	37.80 ± 1.13		
p-(α-D-glucopyranosyloxy)-phenyl-N-succinamyl insulin	40.87 ± 1.32	2 weeks	2 weeks
insulin [Free Insulin, reference compound]		2 to 3 days	1 to 2 days
glucosamidoglutaryl insulin	45.92 ± 3.30		
p-(α-D-glucopyranosyloxy)-phenyl-thiocarbamoyl Insulin	44.67 ± 2.21	2 weeks	8 days
